Laboratory results published in patent publication US20140370048A1, “COMPOSITION FOR TREATMENT OR PREVENTION OF HYPERLIPIDEMIA, CONTAINING ALCOHOL EXTRACTS OF OLIGOPORUS TEPHROLEUCUS” (POSTECH ACADEMY-INDUSTRY FOUNDATION, priority 2011, published 2014).

Tested on: cholesterol absorption in the digestive tract
Assay: Amount of cholesterol absorption into blood from the digestive tract after oral 3H-cholesterol oleate in mice
Type: in vivo
Conditions: 8-week old male Balb/c mouse, plasma six hours after administration, extract 20 ml of 10 mg/mL concentrated into 0.1 mL, Orlistat 400 μg (20 mg/kg), FIG. 2
Experimental: Cholesterol oleate (Amersham, 100 μCi/mL) radiolabeled with ^3H was mixed with 1% (w/v) sodium carboxylmethyl cellulose (CMC-Na), 1% (v/v) Tween 80, and a non-labeled cholesterol oleate, and then 0.1 mL of the mixture was forcibly administered into each mouse through an oral zonde so that 1 μCi could be delivered to each mouse. Here, the mouse in the control group (an 8-week old male Balb/c with body weight of 25 g) was treated with 400 μg of Orlistat (20 mg/kg), which has an inhibitory effect against cholesterol absorption, and the mouse in the experimental group (an 8-week old male Balb/c with body weight of 25 g) was treated with 20 ml of the ethanol extract (10 mg/mL) of Oligoporus tephroleucus prepared in the Example after concentrating it into 0.1 mL. Six hours after the administration, blood samples were collected from the mice, and plasma was obtained by centrifuging the blood at […] at the rate of 14000 rpm, and the radioactive dose was measured by a liquid scintillator (Beta counter, Beckman LS1801). The Control group was not treated with anything that may inhibit the absorption of cholesterol. The amount of cholesterol absorption was determined as a relative value by dividing the radioactive dose of each group into the radioactive dose of the control group, in which the radioactive dose of the control group was set at ‘1’.

Compound: CCCCCCCCCCC[C@@H](C[C@@H]1OC(=O)[C@H]1CCCCCC)OC(=O)[C@H](CC(C)C)NC=O [Orlistat]
- inhibitory effect upon the cholesterol absorption (plasma radioactive dose relative to untreated control set at 1): significant inhibitory effect
